Experimental data: US9981940B2, “Aryl sulfide derivatives and aryl sulfoxide derivatives as acaricides and insecticides” (BAYER CROPSCIENCE AKTIENGESELLSCHAFT, priority 2013, dated 2018)

Key:
Tetranychus urticae = Tetranychus urticae spray test, OP-resistant (TETRUR); type: in vivo; conditions: application rate of 500 g/ha; after 6 days
Procedure: Tetranychus urticae—Spray Test, OP-Resistant (TETRUR)
• Solvent: 78.0 parts by weight of acetone • 1.5 parts by weight of dimethylformamide • Emulsifier: 0.5 part by weight of alkylaryl polyglycol ether
To produce an appropriate active ingredient formulation, 1 part by weight of active ingredient is mixed with the specified amounts of solvent and emulsifier, and the concentrate is diluted to the desired concentration with emulsifier-containing water.
Discs of bean leaves (Phaseolus vulgaris) infested by all stages of the greenhouse red spider mite (Tetranychus urticae) are sprayed with an active ingredient formulation of the desired concentration.
After 6 days, the efficacy in % is determined 100% means that all the spider mites have been killed; 0% means that none of the spider mites have been killed.

[1] = log P by HPLC (OECD Guideline 117), method [a] acidic range; type: physicochemical; conditions: HPLC, method [a] acidic range
Procedure: (§1) The log P values were determined analogously to OECD Guideline 117 (EC Directive 92/69/EEC) by HPLC (high-performance liquid chromatography) using reversed-phase columns (C 18), by the following methods:
[a] The LC-MS determination in the acidic range is effected at pH 2.7 with 0.1% aqueous formic acid and acetonitrile (contains 0.1% formic acid) as eluents; linear gradient from 10% acetonitrile to 95% acetonitrile.

[2] = log P by HPLC (OECD Guideline 117), method [b] neutral range; type: physicochemical; conditions: HPLC, method [b] neutral range
Procedure: as §1
[b] The LC-MS determination in the neutral range is effected at pH 7.8 with 0.001 molar aqueous ammonium hydrogencarbonate solution and acetonitrile as eluents; linear gradient from 10% acetonitrile to 95% acetonitrile.

| logP[a] [1] | logP[b] [2] | SMILES | efficacy (Tetranychus urticae) |
| --- | --- | --- | --- |
| 2.48 | 2.42 | CC=Cc1nn(-c2cc([S+]([O-])CC(F)(F)F)c(C)cc2F)c(=O)n1C1CC1 (racemic) [Example 82] | 100% |
| 2.86 | 2.80 | Cc1cc(F)c(-n2nc(CC(C)C)n(C3CC3)c2=O)cc1[S+]([O-])CC(F)(F)F (racemic) [Example 84] | 100% |
| 2.86 | 2.79 | CCC(C)c1nn(-c2cc([S+]([O-])CC(F)(F)F)c(C)cc2F)c(=O)n1C1CC1 (racemic) [Example 86] | 100% |
| 2.72 | 2.66 | Cc1cc(F)c(-n2nc(C3CCC3)n(C3CC3)c2=O)cc1[S+]([O-])CC(F)(F)F (racemic) [Example 88] | 100% |
| 1.86 | 1.84 | Cc1cc(F)c(-n2nc(N(C)C)n(C)c2=O)cc1[S+]([O-])CC(F)(F)F (racemic) [Example 191] | 90% |
| 2.17 | 2.12 | Cc1cc(F)c(-n2nc(N(C)C)n(C3CC3)c2=O)cc1[S+]([O-])CC(F)(F)F (racemic) [Example 194] | 100% |
| 2.82 | 2.75 | Cc1cc(F)c(-n2nc(SCC3CC3)n(C)c2=O)cc1[S+]([O-])CC(F)(F)F (racemic) [Example 280] | 100% |
| 2.57 | 2.52 | Cc1cc(F)c(-n2nc(SCC(F)(F)F)n(C)c2=O)cc1[S+]([O-])CC(F)(F)F (racemic) [Example 282] | 100% |
| 2.65 | 2.60 | Cc1cc(F)c(-n2nc(SC(F)(F)F)n(C)c2=O)cc1[S+]([O-])CC(F)(F)F (racemic) [Example 284] | 100% |
| 3.24 | 3.17 | C=CCn1c(SC(C)C)nn(-c2cc([S+]([O-])CC(F)(F)F)c(C)cc2F)c1=O (racemic) [Example 285] | 100% |
| 3.08 | 3.02 | Cc1cc(F)c(-n2nc(SCc3ccccc3)n(C)c2=O)cc1[S+]([O-])CC(F)(F)F (racemic) [Example 287] | 100% |
| 3.30 | 3.25 | Cc1cc(F)c(-n2nc(SCC(F)F)n(C)c2=O)cc1[S+]([O-])CC(F)(F)F (racemic) [Example 289] | 100% |
| 2.55 | 2.51 | C=CCSc1nn(-c2cc([S+]([O-])CC(F)(F)F)c(C)cc2F)c(=O)n1C (racemic) [Example 291] | 100% |
| 2.76 | 2.72 | CCSc1nn(-c2cc([S+]([O-])CC(F)(F)F)c(C)cc2F)c(=O)n1CC (racemic) [Example 293] | 90% |
| 2.63 | 2.61 | Cc1cc(C)c([S+]([O-])CC(F)(F)F)cc1-n1nnn(C(C)C)c1=O (racemic) [Example 300] | 100% |
| 1.83 | 1.83 | COC1=CC(=O)N(c2cc([S+]([O-])CC(F)(F)F)c(C)cc2C)C1 (racemic) [Example 313] | 90% |
| 2.24 | 2.23 | COC1=CC(=O)N(c2cc([S+]([O-])CC(F)(F)F)c(Cl)cc2Cl)C1 (racemic) [Example 314] | 100% |
| 2.24 | 2.23 | COC1=CC(=O)N(c2ccc(Cl)c([S+]([O-])CC(F)(F)F)c2)C1 (racemic) [Example 315] | 90% |
| 1.90 | 1.90 | COC1=CC(=O)N(c2ccc(C)c([S+]([O-])CC(F)(F)F)c2)C1 (racemic) [Example 317] | 90% |
| 1.99 | 1.96 | Cc1cc(F)c(-n2nc(C3CC3)n(C)c2=O)cc1[S+]([O-])CC(F)(F)F (racemic) [Example 352] | 90% |
